Data taken from doi:10.1101/2021.10.07.463234v2 (biorxiv, 2021).
Structures can show the parent of a compound that is named as a salt.

Molecular target: SARS-CoV-2 Mac1 (Severe acute respiratory syndrome coronavirus 2, UniProt P0DTD1)
Experiment: biochemical
Conditions: for inhibition at 100 µM: read-out: %inhibition; for %inhibition: 100 µM, inhibitor

| SMILES | inhibition at 100 µM [%] | %inhibition [%] |
| --- | --- | --- |
| CC[C@H](C)C(=O)O[C@H]1C[C@H](O)C=C2C=C[C@H](C)[C@H](CC[C@@H](O)C[C@@H](O)CC(=O)O)[C@H]21 [Pravastatin sodium] | 28.2 |  |
| O=C(C1CCCCC1)N1CC(=O)N2CCc3ccccc3C2C1 (centres unmarked) [Praziquantel] | 0 |  |
| COc1cc2nc(N3CCN(C(=O)c4ccco4)CC3)nc(N)c2cc1OC [Prazosin HCl] | 17.1 |  |
| CC(=O)OCC(=O)[C@@]1(O)CC[C@H]2[C@@H]3CCC4=CC(=O)C=C[C@]4(C)[C@H]3[C@@H](O)C[C@@]21C [Prednisolone Acetate] | 15.9 |  |
| C[C@]12C=CC(=O)C=C1CC[C@@H]1[C@@H]2[C@@H](O)C[C@@]2(C)[C@H]1CC[C@]2(O)C(=O)CO [Prednisolone] | 31 |  |
| C[C@]12C=CC(=O)C=C1CC[C@@H]1[C@@H]2C(=O)C[C@@]2(C)[C@H]1CC[C@]2(O)C(=O)CO [Prednisone] | 0 |  |
| CC(=O)[C@H]1CC[C@H]2[C@@H]3CC=C4C[C@@H](O)CC[C@]4(C)[C@H]3CC[C@]12C [Pregnenolone] | 14.7 |  |
| CCCNC(C)C(=O)Nc1ccccc1C (centres unmarked) [Prilocaine hydrochloride] | 0 |  |
| COc1cc(NC(C)CCCN)c2ncccc2c1 (centres unmarked) [Primaquine Diphosphate] | 5.42 |  |
| CCC1(c2ccccc2)C(=O)NCNC1=O [Primidone] | 7.21 |  |
| CCCC(C(=O)OCCN(CC)CC)(c1ccccc1)c1ccccc1 [Proadifen HCl] | 15.2 |  |
| CC(C)(Sc1cc(C(C)(C)C)c(O)c(C(C)(C)C)c1)Sc1cc(C(C)(C)C)c(O)c(C(C)(C)C)c1 [Probucol] | 6.54 |  |
| CCN(CC)CCNC(=O)c1ccc(N)cc1 [Procainamide HCl] | 17.1 |  |
| CCN(CC)CCOC(=O)c1ccc(N)cc1 [Procaine] | 0 |  |
| CNNCc1ccc(C(=O)NC(C)C)cc1 [Procarbazine HCl] | 0 |  |
| O=C(O)CCc1nc2ccccc2[nH]1 [Procodazole] | 7.67 |  |
| OC(CCN1CCCC1)(c1ccccc1)C1CCCCC1 (centres unmarked) [Procyclidine HCl] | 6.52 |  |
| Nc1ccc2cc3ccc(N)cc3nc2c1 [Proflavine Hemisulfate] | 0 |  |
| CC(=O)[C@H]1CC[C@H]2[C@@H]3CCC4=CC(=O)CC[C@]4(C)[C@H]3CC[C@]12C [Progesterone] | 1.73 |  |
| CN(C)CCCN1c2ccccc2Sc2ccccc21 [Promazine hydrochloride] | 0 |  |
| CC(CN1c2ccccc2Sc2ccccc21)N(C)C (centres unmarked) [Promethazine HCl] | 0 |  |
| CCCNCC(O)COc1ccccc1C(=O)CCc1ccccc1 (centres unmarked) [Propafenone HCl] | 0 |  |
| CC(C)[N+](C)(CCOC(=O)C1c2ccccc2Oc2ccccc21)C(C)C [Propantheline bromide] | 0 |  |
| CCCOc1ccc(C(=O)OCCN(CC)CC)cc1N [Proparacaine HCl] | 13 |  |
| CCCOC(C(=O)OC1CCN(C)CC1)(c1ccccc1)c1ccccc1 [Propiverine hydrochloride] | 21.7 |  |
| CC(C)c1cccc(C(C)C)c1O [Propofol] | 19.3 |  |

| SMILES | inhibition at 100 µM [%] | %inhibition [%] |
| --- | --- | --- |
| CCCc1cc(=O)[nH]c(=S)[nH]1 [Propylthiouracil] | 11.2 |  |
| Cc1c(C(C)C)c(=O)n(-c2ccccc2)n1C [Propyphenazone (4-Isopropylantipyrine)] | 0 |  |
| CCCCC[C@H](O)/C=C/[C@H]1[C@H](O)CC(=O)[C@@H]1C/C=C\CCCC(=O)O [Prostaglandin E2 (PGE2)] | 8.12 |  |
| CCCc1cc(C(N)=S)ccn1 [Protionamide] | 50.9 |  |
| NC(=O)[C@@H]1CCCN1C(=O)[C@H](Cc1c[nH]cn1)NC(=O)[C@@H]1CCC(=O)N1 [Protirelin] | 0 |  |
| CC(O)Cn1cnc2c1c(=O)n(C)c(=O)n2C (centres unmarked) [Proxyphylline] | 1.62 |  |
| COCCCN1CCC(NC(=O)c2cc(Cl)c(N)c3c2OCC3)CC1 [Prucalopride Succinate] |  | 23.93 |
| COCCCN1CCC(NC(=O)c2cc(Cl)c(N)c3c2OCC3)CC1 [Prucalopride] |  | 8.754 |
| COc1ccc(C[C@H](N)C(=O)N[C@H]2[C@@H](O)[C@H](n3cnc4c(N(C)C)ncnc43)O[C@@H]2CO)cc1 [Puromycin 2HCl] | 4.39 |  |
| NC(=O)c1cnccn1 [Pyrazinamide] | 24.2 |  |
| CN(C)C(=O)Oc1ccc[n+](C)c1 [Pyridostigmine Bromide] | 0 |  |
| Cc1ncc(COP(=O)(O)O)c(C=O)c1O [Pyridoxal phosphate] | 0 |  |
| Cc1ncc(CO)c(CO)c1O [Pyridoxine] | 0 |  |
| COc1ccc(CN(CCN(C)C)c2ccccn2)cc1 [Pyrilamine Maleate] | 5.37 |  |
| CCc1nc(N)nc(N)c1-c1ccc(Cl)cc1 [Pyrimethamine] | 3.53 |  |
| CCOC(=O)[C@H](CCc1ccccc1)N[C@@H](C)C(=O)N1Cc2ccccc2C[C@H]1C(=O)O [Quinapril HCl] | 25 |  |
| C#C[C@]1(O)CC[C@H]2[C@@H]3CCc4cc(OC5CCCC5)ccc4[C@H]3CC[C@@]21C [Quinestrol] | 0 |  |
| C=C[C@H]1CN2CC[C@H]1C[C@@H]2[C@@H](O)c1ccnc2ccc(OC)cc12 [Quinidine sulfate] | 0 |  |
| C=C[C@H]1CN2CC[C@H]1C[C@H]2[C@H](O)c1ccnc2ccc(OC)cc12 [Quinine HCl Dihydrate] | 0 |  |
| Cn1cc(CNCC2CCN(c3ncc(C(=O)NO)cn3)CC2)c2ccccc21 [Quisinostat (JNJ-26481585) 2HCl] | 0 |  |
| CC(C)(C)c1cc(NC(=O)Nc2ccc(-c3cn4c(n3)sc3cc(OCCN5CCOCC5)ccc34)cc2)no1 [Quizartinib (AC220)] | 0 |  |
| COc1cc(Nc2ncc(F)c(Nc3ccc4c(n3)N(COP(=O)(O)O)C(=O)C(C)(C)O4)n2)cc(OC)c1OC [R788 (Fostamatinib) Disodium] |  | 15.48 |
| COCCCOc1ccnc(C[S+]([O-])c2nc3ccccc3[nH]2)c1C (centres unmarked) [Rabeprazole] |  | 0.1163 |
| CC(=O)SCC(Cc1ccccc1)C(=O)NCC(=O)OCc1ccccc1 (centres unmarked) [Racecadotril] | 0 |  |
| CC(CCc1ccc(O)cc1)NCC(O)c1ccc(O)cc1 (centres unmarked) [Ractopamine HCl] | 0 |  |
| Cc1cn(-c2cc(NC(=O)c3ccc(C)c(Nc4nccc(-c5cnccn5)n4)c3)cc(C(F)(F)F)c2)cn1 [Radotinib] | 1.77 |  |

| SMILES | inhibition at 100 µM [%] | %inhibition [%] |
| --- | --- | --- |
| CC(C)(C)Cn1c(N)nc2ccc(-c3[nH]c(C(C)(C)C)nc3-c3ccc(F)cc3)nc21 [Ralimetinib (LY2228820)] | 0.925 |  |
| O=C(c1ccc(OCCN2CCCCC2)cc1)c1c(-c2ccc(O)cc2)sc2cc(O)ccc12 [Raloxifene HCl] | 63.1 |  |
| Cc1nnc(C(=O)NC(C)(C)c2nc(C(=O)NCc3ccc(F)cc3)c(O)c(=O)n2C)o1 [Raltegravir (MK-0518)] |  | 3.868 |
| Cc1nnc(C(=O)NC(C)(C)c2nc(C(=O)NCc3ccc(F)cc3)c(O)c(=O)n2C)o1 [Raltegravir potassium] |  | 7.113 |
| Cc1nc(=O)c2cc(CN(C)c3ccc(C(=O)N[C@@H](CCC(=O)O)C(=O)O)s3)ccc2[nH]1 [Raltitrexed] | 24.8 |  |
| O=C(O)CCn1c2c(c3ccccc31)C[C@H](NS(=O)(=O)c1ccc(F)cc1)CC2 [Ramatroban] | 4.2 |  |
| CCC(=O)NCC[C@@H]1CCc2ccc3c(c21)CCO3 [Ramelteon] | 21 |  |
| CCOC(=O)[C@H](CCc1ccccc1)N[C@@H](C)C(=O)N1[C@H](C(=O)O)C[C@@H]2CCC[C@@H]21 [Ramipril] | 0 |  |
| Cn1cc(C(=O)[C@@H]2CCc3[nH]cnc3C2)c2ccccc21 [Ramosetron Hydrochloride] | 0 |  |
| CNC(=C[N+](=O)[O-])NCCSCc1ccc(CN(C)C)o1 [Ranitidine Hydrochloride] | 10.7 |  |
| COc1ccccc1OCC(O)CN1CCN(CC(=O)Nc2c(C)cccc2C)CC1 (centres unmarked) [Ranolazine 2HCl] |  | 0 |
| COc1ccccc1OCC(O)CN1CCN(CC(=O)Nc2c(C)cccc2C)CC1 (centres unmarked) [Ranolazine] |  | 11.36 |
| CO[C@H]1C[C@@H]2CC[C@@H](C)[C@@](O)(O2)C(=O)C(=O)N2CCCC[C@H]2C(=O)O[C@H]([C@H](C)C[C@@H]2CC[C@@H](O)[C@H](OC)C2)CC(=O)[C@H](C)/C=C(\C)[C@@H](O)[C@@H](OC)C(=O)[C@H](C)C[C@H](C)/C=C/C=C/C=C/1C [Rapamycin (Sirolimus)] | 30.7 |  |
| C#CCN[C@@H]1CCc2ccccc21 [Rasagiline Mesylate] | 0 |  |
| O=C(NC(Cc1cc(=O)[nH]c2ccccc12)C(=O)O)c1ccc(Cl)cc1 (centres unmarked) [Rebamipide] | 0 |  |
| COCCCOc1ccnc(C[S+]([O-])c2nc3ccccc3[nH]2)c1C (centres unmarked) [Rebeprazole sodium] |  | 0 |
| CNC(=O)c1cnn(-c2nc(N)c3ncn([C@@H]4O[C@H](CO)[C@@H](O)[C@H]4O)c3n2)c1 [Regadenoson] | 0 |  |
| CNC(=O)c1cc(Oc2ccc(NC(=O)Nc3ccc(Cl)c(C(F)(F)F)c3)c(F)c2)ccn1 [Regorafenib (BAY 73-4506)] |  | 2.978 |
| CNC(=O)c1cc(Oc2ccc(NC(=O)Nc3ccc(Cl)c(C(F)(F)F)c3)c(F)c2)ccn1 [Regorafenib Monohydrate] |  | 0 |
| CCOc1cc(CC(=O)N[C@@H](CC(C)C)c2ccccc2N2CCCCC2)ccc1C(=O)O [Repaglinide] | 0 |  |
| COC(=O)[C@H]1[C@H]2C[C@@H]3c4[nH]c5cc(OC)ccc5c4CCN3C[C@H]2C[C@@H](OC(=O)c2cc(OC)c(OC)c(OC)c2)[C@@H]1OC [Reserpine] | 0 |  |
| CN(C)Cc1ccc(S(=O)(=O)n2ccc(/C=C/C(=O)NO)c2)cc1 [Resminostat] | 18.5 |  |
| Oc1cccc(O)c1 [Resorcinol] | 0 |  |
| Oc1ccc(/C=C/c2cc(O)cc(O)c2)cc1 [Resveratrol] | 0 |  |
| C=C[C@]1(C)C[C@@H](OC(=O)CS[C@@H]2C[C@H]3CC[C@@H](C2)N3C)[C@]2(C)[C@H](C)CC[C@]3(CCC(=O)[C@H]32)[C@@H](C)[C@@H]1O [Retapamulin] | 0 |  |
